In patent publication US20220163532A1, “NUCLEAR-DERIVED EXOSOMES AND METHODS OF USE THEREOF” (Board of Regents, The University of Texas System, priority 2019, published 2022):

What was measured:
Type in all cases: cell-based, human
[1] = system: OVCAR-5 and OVCAR-8 cells; assay: MN quantification in ovarian cancer cells treated with genotoxic drugs (IF, Lamin A/C); conditions: topotecan 10 nM or olaparib 20 μM, vs DMSO
Protocol: IF experiments and MN quantification. Cells were plated at a density of 5×10^4 cells on sterile, 0.17-mm-thick coverslips (12-548-A, Thermo Fisher Scientific) placed at the bottom of six-well plates. The next day, cells were treated for 24 hours with either vehicle control dimethyl sulfoxide (DMSO; 1:1000 dilution; D2650, Sigma-Aldrich), 20 μM olaparib (O-9201, LC Laboratories), or 10 nM topotecan (T2705-50MG, Sigma-Aldrich). After 24 hours, the cells were washed with PBS and refed with the appropriate cell culture medium to grow for another 48 hours, for a total time of 72 hours after initial plating on the coverslips.
The drug-treated cells were first washed three times with PBS, fixed with 4% paraformaldehyde (PFA; 50-980-487, Thermo Fisher Scientific) diluted in PBS, and incubated at RT for 15 min with light rocking. […] Last, cells on coverslips were then washed four times with PBS and mounted on slides using ProLong Diamond Antifade Mountant (P36961, Thermo Fisher Scientific) and imaged with a Leica fluorescence microscope (Leica DM4000 M LED; Leica Microsystems) or an Andor Revolution XDi WD Spinning Disk Confocal microscope. For MN quantification, the number of MN in each 40× field was counted using 10 fields per sample. […]

[2] = system: OVCAR-5 and OVCAR-8 cells; assay: DNA-positive exosomes (nExo) from drug-treated ovarian cancer cells by imaging flow cytometry; conditions: topotecan 10 nM or olaparib 20 μM, parental cells treated 48 hours, vs DMSO
Protocol: (§1) Isolation of exosomes. The isolation method for exosomes that was used in this study followed the standard methods of the International Society of Extracellular Vesicles (Witwer et al., 2013). Cell lines described above were grown in the corresponding medium described above until 60 to 70% confluence was achieved. Cells were then washed twice with phosphate-buffered saline (PBS) and grown in corresponding medium containing 1% exosome-free FBS (EXO-FBS-250A-1, System Biosciences) plus 0.1% gentamicin for 48 hours. For exosome isolation, the harvested medium underwent serial centrifugation. First, the medium was spun down at 500g for 10 min to pellet any floating cells. Next, the supernatant was collected and spun down at 2000g for 30 min to pellet any residual cell debris. The resulting supernatant was then filtered through a 0.22-μm filter (SCGPUO5RE and SLGP033RS, Millipore-Sigma) to remove any remaining large vesicles. […] Exosome concentration and quantity were determined using NTA with a NanoSight NS300 instrument (Malvern Panalytical).
Exosome staining for imaging flow cytometry and analysis. For quantitative analysis and imaging flow cytometry of exosomes, the method described by Erdbrugger et al. (2014) using an Amnis ImageStreamX MarkII analyzer was adapted. […]

ovarian cancer cells = assay: Nuclear proteins in exosomes from drug-treated ovarian cancer cells (Western blot); conditions: topotecan 10 nM or olaparib 20 μM
Protocol: as §1, with “vesicles. After filtration, the medium was spun down at 40,000 rpm for 2 hours at 4° C. in an ultracentrifuge (Optima XE, Beckman Coulter) with a Ti 45 fixed-angle rotor (339160, Beckman Coulter).” for “vesicles.”
Western blotting. […] Protein concentration was determined using the Micro BCA Protein Assay Kit (23235, Thermo Fisher Scientific) according to the manufacturer's protocol. […]

## O=C(c1cc(Cc2n[nH]c(=O)c3ccccc23)ccc1F)N1CCN(C(=O)C2CC2)CC1 [olaparib]
[1]
  number of MN: increased significantly
[2]
  population of exosomes containing gDNA (proportion of nExo secreted): increased
Ovarian cancer cells
  population of exosomes containing nuclear proteins: increased
